The values below come from PubChem BioAssay AID328 (DTP/NCI, 2004).

Where “and” joins values, the source holds several entries; their conditions need not be identical. Equal values may be shown once. Inconclusive results and toxic doses are left out.

In this experiment the test system is BDF1 mice, P388 leukemia ip, median survival T/C. In words: NCI In Vivo Anticancer Drug Screen. Data for tumor model P388 Leukemia (intraperitoneal) in B6D2F1 (BDF1) mice. The settings on record: endpoint: median survival time, higher = longer survival. The method, boiled down: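 Each value expresses how treatment altered survival: treated-mouse outcome over vehicle-mouse outcome, both groups bearing the transplanted tumour.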

Setting [1] is: dose: 400.0 mg/kg/injection, schedule: Q04DX003 (ip), vehicle: saline with Tween-80.
Setting [2] is: dose: 6.25 mg/kg/injection, schedule: Q01DX009 (ip), vehicle: saline with Tween-80.
The mark [3] stands for this setting: dose: 12.5 mg/kg/injection, schedule: Q01DX009 (ip), vehicle: saline with Tween-80.
Where [4] appears, read: dose: 25.0 mg/kg/injection, schedule: Q01DX009 (ip), vehicle: saline with Tween-80.
Where [5] appears, read: dose: 50.0 mg/kg/injection, schedule: Q01DX009 (ip), vehicle: saline with Tween-80.
Where [6] appears, read: dose: 12.5 mg/kg/injection, schedule: Q01DX009 (ip), vehicle: saline.
Setting [7] is: dose: 25.0 mg/kg/injection, schedule: Q01DX009 (ip), vehicle: saline.
[8] abbreviates: dose: 50.0 mg/kg/injection, schedule: Q01DX009 (ip), vehicle: saline.
Where [9] appears, read: dose: 100.0 mg/kg/injection, schedule: Q01DX009 (ip), vehicle: saline with Tween-80.
[10] abbreviates: dose: 25.0 mg/kg/injection, schedule: Q04DX003 (ip), vehicle: saline.
Setting [11] is: dose: 50.0 mg/kg/injection, schedule: Q04DX003 (ip), vehicle: saline.
Where [12] appears, read: dose: 100.0 mg/kg/injection, schedule: Q04DX003 (ip), vehicle: saline.
Setting [13] is: dose: 6.25 mg/kg/injection, schedule: Q01DX009 (ip), vehicle: saline.
The mark [14] stands for this setting: dose: 200.0 mg/kg/injection, schedule: Q01DX009 (ip), vehicle: saline with Tween-80.

With `CC(=O)Oc1ccc(OC(C)=O)c2c1C(=O)C=CC2=O`, the T/C (dose: 0.09 mg/kg/injection, schedule: Q01DX009 (ip), vehicle: Klucel (hydroxypropylcellulose) (HPC)) is 97 % of control; the T/C (dose: 0.18 mg/kg/injection, schedule: Q01DX009 (ip), vehicle: Klucel (hydroxypropylcellulose) (HPC)) is 97 % of control; the T/C (dose: 0.37 mg/kg/injection, schedule: Q01DX009 (ip), vehicle: Klucel (hydroxypropylcellulose) (HPC)) is 112 % of control; the T/C (dose: 0.75 mg/kg/injection, schedule: Q01DX009 (ip), vehicle: Klucel (hydroxypropylcellulose) (HPC)) was 118 % of control; the T/C (dose: 1.5 mg/kg/injection, schedule: Q01DX009 (ip), vehicle: Klucel (hydroxypropylcellulose) (HPC)) was 93 % of control and 98 % of control; the T/C (dose: 3.0 mg/kg/injection, schedule: Q01DX009 (ip), vehicle: Klucel (hydroxypropylcellulose) (HPC)) is 95 % of control. Moreover, the T/C (dose: 6.25 mg/kg/injection, schedule: Q01DX009 (ip), vehicle: Klucel (hydroxypropylcellulose) (HPC)) was 91 % of control.
`CCCCOC(=O)c1[nH]cnc1/N=N\N(C)C`: the T/C is 104 % of control (dose: 12.5 mg/kg/injection, schedule: Q01DX009 (ip), vehicle: Klucel (hydroxypropylcellulose) (HPC)); 109 % of control (dose: 25.0 mg/kg/injection, schedule: Q01DX009 (ip), vehicle: Klucel (hydroxypropylcellulose) (HPC)); 104 % of control (dose: 50.0 mg/kg/injection, schedule: Q01DX009 (ip), vehicle: Klucel (hydroxypropylcellulose) (HPC)); 100 % of control (dose: 100.0 mg/kg/injection, schedule: Q01DX009 (ip), vehicle: Klucel (hydroxypropylcellulose) (HPC)); 100 % of control and 113 % of control (dose: 132.0 mg/kg/injection, schedule: Q04DX003 (ip), vehicle: Klucel (hydroxypropylcellulose) (HPC)); 95 % of control and 113 % of control (dose: 200.0 mg/kg/injection, schedule: Q04DX003 (ip), vehicle: Klucel (hydroxypropylcellulose) (HPC)). The T/C (dose: 300.0 mg/kg/injection, schedule: Q04DX003 (ip), vehicle: Klucel (hydroxypropylcellulose) (HPC)) was 109 % of control and 118 % of control.
Turning to `NC(CCC(=O)NC(CSC(c1ccccc1)(c1ccccc1)c1ccc(F)cc1)C(=O)NCC(=O)O)C(=O)O` (stereo not drawn), the T/C runs as follows: (dose: 115.0 mg/kg/injection, schedule: Q04DX003 (ip), vehicle: saline) 118 % of control; (dose: 177.0 mg/kg/injection, schedule: Q04DX003 (ip), vehicle: saline with Tween-80) 118 % of control; (dose: 266.0 mg/kg/injection, schedule: Q04DX003 (ip), vehicle: saline with Tween-80) 159 % of control; (dose: 266.0 mg/kg/injection, schedule: Q04DX003 (ip), vehicle: saline) 181 % of control; under setting [1], 231 % of control.
With `O=[N+]([O-])/C=C/c1ccc(O)cc1`, the T/C runs as follows: under setting [2], 100 % of control; under setting [3], 102 % of control; under setting [4], 110 % of control; under setting [5], 107 % of control.
For `O=C(Nc1cccc(C(F)(F)F)c1)Nc1ccc(Oc2ccc(Cl)cc2)cc1S(=O)(=O)O`, the T/C (dose: 50.0 mg/kg/injection, schedule: Q04DX003 (ip), vehicle: saline sonified) is 104 % of control and the T/C (dose: 100.0 mg/kg/injection, schedule: Q04DX003 (ip), vehicle: saline sonified) was 100 % of control.
In the case of `CC(C)(C)c1cc(I)c(O)c(CN)c1`, the T/C was 105 % of control under setting [3]; 95 % of control under setting [6]; 109 % of control under setting [4]; 104 % of control under setting [7]; 114 % of control under setting [5]; 104 % of control under setting [8]. Besides, the T/C under setting [9] was 114 % of control.
For the compound `COc1cccc(N=C(N)N=C(N)N)c1`, the T/C under setting [10] was 95 % of control; the T/C (dose: 50.0 mg/kg/injection, schedule: Q01DX001 (ip), vehicle: saline) was 100 % of control; the T/C under setting [11] is 91 % of control; the T/C (dose: 100.0 mg/kg/injection, schedule: Q01DX001 (ip), vehicle: saline) was 100 % of control; the T/C under setting [12] was 95 % of control.
For `CCCCCCCCCCCCSC(=N)N`, the T/C is 104 % of control (dose: 0.39 mg/kg/injection, schedule: Q04DX003 (ip), vehicle: saline); 104 % of control (dose: 0.78 mg/kg/injection, schedule: Q04DX003 (ip), vehicle: saline); 100 % of control (dose: 3.12 mg/kg/injection, schedule: Q04DX003 (ip), vehicle: saline); 109 % of control under setting [13]; 100 % of control under setting [6]; 100 % of control under setting [7].
In the case of `O=C1C2CCC(C2)[CH]1[Hg][Cl]` (stereo not drawn), the T/C was 102 % of control (dose: 1.56 mg/kg/injection, schedule: Q01DX009 (ip), vehicle: saline with Tween-80); 103 % of control (dose: 3.13 mg/kg/injection, schedule: Q01DX009 (ip), vehicle: saline with Tween-80); 118 % of control under setting [2].
Regarding `COc1cc2c(cc1OCc1ccccc1)C=CN(C(=O)c1ccccc1)C2C#N` (stereo not drawn), the T/C by setting is: under setting [7], 105 % of control; under setting [10], 103 % of control; under setting [8], 92 % of control; under setting [11], 100 % of control; (dose: 100.0 mg/kg/injection, schedule: Q01DX009 (ip), vehicle: saline) 93 % of control; under setting [12], 97 % of control. Besides, the T/C was 90 % of control (dose: 200.0 mg/kg/injection, schedule: Q01DX009 (ip), vehicle: saline); 103 % of control (dose: 200.0 mg/kg/injection, schedule: Q04DX003 (ip), vehicle: saline); 96 % of control (dose: 400.0 mg/kg/injection, schedule: Q01DX009 (ip), vehicle: saline); 97 % of control (dose: 400.0 mg/kg/injection, schedule: Q04DX003 (ip), vehicle: saline).
With `COc1cccc(CCNC(=O)CC(=O)O)c1OC`, the T/C was 100 % of control (dose: 100.0 mg/kg/injection, schedule: Q04DX003 (ip), vehicle: saline with Tween-80); 105 % of control (dose: 200.0 mg/kg/injection, schedule: Q04DX003 (ip), vehicle: saline with Tween-80); 100 % of control under setting [1].
As to `COc1cccc(CC2=NCCc3cc(OC)c(OC)cc32)c1`, the T/C reads like this: under setting [13], 108 % of control; under setting [6], 94 % of control; under setting [7], 94 % of control; under setting [10], 87 % of control; under setting [8], 95 % of control and 98 % of control; under setting [11], 91 % of control.
As for `c1ccc(-c2csc3c4ccccc4c4ccccc4[n+]23)cc1`, the T/C was 100 % of control (dose: 0.5 mg/kg/injection, schedule: Q01DX009 (ip), vehicle: saline); 104 % of control (dose: 1.0 mg/kg/injection, schedule: Q01DX009 (ip), vehicle: saline); 118 % of control (dose: 2.0 mg/kg/injection, schedule: Q01DX009 (ip), vehicle: saline); 113 % of control (dose: 4.0 mg/kg/injection, schedule: Q01DX009 (ip), vehicle: saline); 100 % of control (dose: 8.0 mg/kg/injection, schedule: Q01DX009 (ip), vehicle: saline).
As to `ClCc1ccc2ccccc2n1`, the T/C reads like this: under setting [5], 113 % of control; under setting [9], 122 % of control; (dose: 132.0 mg/kg/injection, schedule: Q01DX009 (ip), vehicle: saline with Tween-80) 113 % of control; under setting [14], 122 % of control; (dose: 300.0 mg/kg/injection, schedule: Q01DX009 (ip), vehicle: saline with Tween-80) 104 % of control.
As to `CC(C)COC(=O)C(C)Oc1ccc(Oc2ccc(Cl)cc2)cc1` (stereo not drawn), the T/C reads like this: under setting [5], 98 % of control; under setting [9], 116 % of control; under setting [14], 91 % of control.
